The text below walks through data of patent publication US7119229B2 (priority 2001, dated 2006).

Holding throughout (format): cell-based
For one assay, the system named is XF-498 (human CNS). As to the kind of experiment: SRB cytotoxicity assay, XF498. To be noted: 72 hours, read-out: ED50 XF498. On the procedure:
(§1) Human tumor cells, including MCF-7 (human breast adenomatous tumor), MCF-7/DOX (adriamycin resistant cell strain), MRS-SA (human uterine sarcoma), MES-SA/DX5 (adriamycin resistant cell strain), A 549 (human non-small cell lung), SKOV-3 (human ovarian), SKMEL-2 (human melanoma), XF-498 (human CNS), HCT-15 (human colon) were incubated at 37° C. in the presence of 5% CO2 using a DMEM culture medium. The respective cells were seeded into each well of 96-well plates at a concentration of 2×10^3˜5×10^3 cells/well. […] Each cell line of the resultant plates was fixed with trichloroacetic acid (TCA), stained with 0.4% SRB solution and rinsed with 1% acetic acid. Thereafter, the dye was dissolved in 10 mM Tris base to measure the optical density (OD) at 520 nm.

Assay [1] has as its system A 549 (human non-small cell lung). As to the kind of experiment: SRB cytotoxicity assay, A549. To be noted: A549, 72 h, read-out: ED50 A549. As for the experimental part: as §1
The test system of assay [2] is BALB/c mouse spleen cell (responding) and DBA/2 mouse spleen cell (stimulating). The settings on record: MLR, FIG. 1. On the procedure:
MLR tests were carried out to determine the immunosuppressive effect of an immunosuppressive candidate material. When a responding cell (BALB/c mouse spleen cell) and a stimulating cell (DBA/2 mouse spleen cell) were cultured separately, the cells grew little. On the contrary, when the cells were simultaneously cultured, the cells were proliferated due to induction of an antigen-antibody reaction. The proliferated cells were treated with the immunosuppressive candidate material for measurement of the proliferation inhibitory extent.
After culturing for 72 hours at a CO2 incubator, a 20 μl MTS solution was added to each well, followed by further culturing for 2 to 4 hours and measuring OD at […] by using ELISA.

For another assay, the system named is SKMEL-2 (human melanoma). As to the kind of experiment: SRB cytotoxicity assay, SK-MEL-2. To be noted: SK-MEL-2, 72 h, read-out: ED50 SK-MEL-2. On the procedure: as §1
For orientation: The SRB assay estimates cell density from bound dye.

Turning to `COc1cc2c(c(OC)c1OC)-c1ccc(OC)c(=O)cc1[C@@H](NC(=O)c1cccc(CO[N+](=O)[O-])c1)CC2` [Compound 6, 3-nitrooxymethyl-N-(1,2,3,10-tetramethoxy-9-oxo-5,6,7,9-tetrahydro-benzo[a]heptarene-7-yl)-benzamide], the EC50 (in the assay on XF-498 (human CNS); in assay [1]; with SKMEL-2 (human melanoma)) was 100 pM in each case. In addition, the immunosuppressive effect result in assay [2] was “good immunosuppressive effect”.
